Measured values from paper PMC6271143, “Novel Triphenylantimony(V) and Triphenylbismuth(V) Complexes with Benzoic Acid Derivatives: Structural Characterization, in Vitro Antileishmanial and Antibacterial Activities and Cytotoxicity against Macrophages” (Molecules, 2014).
In brackets after ≈: the same amount, converted by molar mass. Like-named read-outs stand apart in the source and are kept apart here.

Key:
[1] = tested on: L. infantum promastigotes; experiment: Antileishmanial activity assay (growth inhibition, absorbance at 600 nm) against L. infantum promastigotes; format: cell-based, Leishmania infantum (strain MCAN/BR/2002/BH400); details: for IC50: promastigotes, IC50/72 h (source says 48 h), non-linear regression, read-out: IC50 (μM) ± SEM, L. infantum strain
Protocol: (§1) The four complexes, their metal salts and their respective free ligands were primarily tested for their activity to investigate whether they inhibit the growth of L. amazonensis and L. infantum promastigotes. The growth rate of the promastigotes incubated for […] in the presence of test compounds was compared to those of nontreated negative control and to those treated with the standard antileishmanial antimony(III) drug tartar emetic.
(§2) Leishmania amazonensis (strain MHOM/BR/1989/BA199) and Leishmania infantum (strain MCAN/BR/2002/BH400) promastigotes were maintained in minimum essential culture medium (α-MEM) (Gibco, Invitrogen, Grand Island, NY, USA) supplemented with 10% (v/v) heat inactivated fetal calf serum (Cultilab, Campinas, SP, Brazil), […] kanamycin, […] ampicillin, 2 mM L-glutamine, […] hemin, 5 mM biopterin, (Sigma-Aldrich), pH 7.0 and incubated at 25 °C [52].
(§3) Complexes 1-4 were evaluated in vitro for their activity against two wild type Leishmania parasites. Log-phase L. amazonensis and L. infantum promastigotes (1 × 10^6 parasites/mL) were seeded in 24-wells cell culture plates with 1.5 mL of α-MEM, incubated under shaking at 25 °C during 72 h in the presence of several concentrations of complex 1–4, free ligands HL1-2, and metal precursors M1-2. Non-treated parasites in the presence of DMSO solution and absence of any test compound were established for growth comparison. Stock solutions of the ligands, 2-acetylsalicylic acid and 3-acetoxybenzoic acid, their metal complexes 1–4, and metal salts, Ph3SbCl2 and Ph3BiCO3 were dissolved in DMSO and diluted in α-MEM cell culture medium to obtain the range of tested concentrations. […] For drug susceptibility assay, Leishmania growth curves were constructed by measuring absorbance at 600 nm. The antileishmanial activity is expressed as IC50/72 h, which is the concentration that reduces cell growth by 50% compared to untreated control (relative growth). All experiments were done at least three times as independent experiments performed in triplicate.
(§4) The IC50 and CC50 values were calculated by nonlinear regression using the software GraphPad Prism 5.0. The acceptable level of significance was 95% (p < 0.05).

[2] = tested on: L. amazonensis promastigotes; experiment: Antileishmanial activity assay (growth inhibition, absorbance at 600 nm) against L. amazonensis promastigotes; format: cell-based, Leishmania amazonensis (strain MHOM/BR/1989/BA199); details: for IC50: promastigotes, IC50/72 h (source says 48 h), non-linear regression, read-out: IC50 (μM) ± SEM, L. amazonensis strain
Protocol: as §1, §2, §3, §4

[3] = tested on: Staphyloccocus aureus (ATCC 6538); experiment: Minimum inhibitory concentration, broth dilution (NCCLS M7-A6), S. aureus; format: cell-based, Staphylococcus aureus; details: for MIC: ATCC 6538, 100% inhibition of growth, visual, 24 h at 37 °C; for d SI (selective index): ratio between MIC in murine macrophages and MIC in Staphylococcus aereus: as printed in footnote d
Protocol: (§5) Antimicrobial activity tests were performed in a quantitative way by determining the minimum inhibitory concentration (MIC) by the standard method for in vitro anti-bacterial susceptibility testing proposed by the National Committee for Clinical Laboratory Standards [NCCLS M7-A6] [56]. Sthaphyloccocus aureus [ATCC6538] and Pseudomonas aeruginosa [ATCC27853] stored in Müller–Hilton broth were sub-cultured for testing in the same medium and incubated for 24 h, respectively, at 37 °C. The bacterial cells of the two strains were suspended in Müller-Hilton broth to produce inocula of 10^8 CFU mL^–1, determined by a spectrophotometric method. Serial dilutions of the compounds, previously dissolved in DMSO, were prepared in 10 test tubes with Müller–Hilton broth to final concentrations from 100 μg mL^–1 to 0.20 μg mL^–1 for P. aeruginosa and S. aureus. An old inoculum of each strain was added to the tubes to obtain final concentrations of 10^5 CFU. […] Tests using tetracycline as positive control and DMSO as negative control were carried out in parallel. All tests were performed in triplicate with full agreement between the results.

[4] = tested on: Pseudomonas aeruginosa (ATCC 27853); experiment: Minimum inhibitory concentration, broth dilution (NCCLS M7-A6), P. aeruginosa; format: cell-based; details: visual, 24 h at 37 °C
Protocol: as §5

[5] = tested on: mouse peritoneal macrophages; experiment: Cytotoxicity (MTT assay) against mouse peritoneal macrophages; format: cell-based, mouse (Balb/c); details: 24 h, murine peritoneal macrophages, read-out: CC50: concentration that is cytotoxic against 50% of macrophages
Protocol: (§6) The in vitro cytotoxicity of the complexes, along their metal salts and ligands, was evaluated by means of the MTT assays towards mouse peritoneal macrophages. The results of in vitro cytotoxic activity are expressed as CC50, which is the concentration of compound that inhibits the viability of macrophages by 50% as compared to untreated macrophages control.
(§7) The concentration of studied compounds that is cytotoxic to 50% of the macrophages (CC50) was determined by the 3-(4,5-dimethylthiazol-2-yl)-2,5 diphenyltetrazolium bromide (MTT) method according to Mosmann. Briefly, peritoneal macrophages were obtained from Balb/c mice after intraperitoneal injection of 2 mL of 3% sodium thioglycolate medium. Mice were euthanized after 72 h, just before removal of peritoneal macrophages by washing with cold RPMI 1640 medium. The procedure was approved by the Internal Ethics Committee in Animal Experimentation (CEUA) of the Federal University of Uberlândia (Protocol 069/2013). After washing, the cell suspension (4.0 × 10^6/mL) was seeded (0.1 mL) in 96-well flat bottom plates. Macrophages were allowed to adhere for 2 h and non-adherent cells were removed by washing with RPMI. Then, the compounds were added to the wells at different concentrations and the cells were further cultured in RPMI-1640 supplemented with 10% FBS for 24 h at 37 °C in a humidified 5% CO2 atmosphere. Thereafter, the medium was replaced with fresh RPMI containing 0.5 mg/mL of MTT and the plates were incubated for additional 4 h. Supernatants were aspirated and the formazan crystals formed were dissolved in 100 μL of DMSO. After 15 min of incubation at room temperature, absorbance of solubilized MTT formazan product was spectrophotometrically measured at 570 nm.
as §4

[6] = Antileishmanial activity assay (growth inhibition, absorbance at 600 nm) against L. infantum promastigotes; format: cell-based, Leishmania infantum (strain MCAN/BR/2002/BH400); details: Balb/c, mouse (macrophages); Leishmania infantum (promastigotes), pH 7; CC50 macrophages / IC50 L. infantum; read-out: a SI (selective index): ratio between CC50 in murine macrophages and IC50 in L. infantum
Protocol: as §1, §2, §3, §4

[7] = Antileishmanial activity assay (growth inhibition, absorbance at 600 nm) against L. amazonensis promastigotes; format: cell-based, Leishmania amazonensis (strain MHOM/BR/1989/BA199); details: Balb/c, mouse (macrophages); Leishmania amazonensis (promastigotes), pH 7; CC50 macrophages / IC50 L. amazonensis; read-out: b SI (selective index): ratio between CC50 in murine macrophages and IC50 in L. amazonensis (WT)
Protocol: as §1, §2, §3, §4

[8] = Cytotoxicity (MTT assay) against mouse peritoneal macrophages; format: cell-based, mouse (Balb/c); details: Balb/c, mouse, mouse peritoneal macrophages, murine peritoneal macrophages, read-out: CC50: concentration that is cytotoxic against 50% of macrophages
Protocol: as §6, §7, §4

[9] = tested on: L. infantum promastigotes; experiment: Antileishmanial activity assay (growth inhibition, absorbance at 600 nm) against L. infantum promastigotes; format: cell-based, Leishmania infantum (strain MCAN/BR/2002/BH400); details: Leishmania infantum, IC50/72 h (source says 48 h), non-linear regression, read-out: IC50 (μM) ± SEM, L. infantum strain
[10] = tested on: Pseudomonas aeruginosa (ATCC 27853); experiment: Minimum inhibitory concentration, broth dilution (NCCLS M7-A6), P. aeruginosa; format: cell-based; details: as printed in footnote c
[11] = tested on: L. amazonensis promastigotes; set-up: method as in PMID 23099618; details: read-out: IC50 (μM) ± SEM, L. amazonensis strain; cited from earlier work
[12] = tested on: Pseudomonas aeruginosa (ATCC 27853); set-up: method as in doi:10.1016/j.molstruc.2010.11.048; details: cited from earlier work
Leishmania promastigotes = tested on: Leishmania promastigotes; set-up: method as in PMID 19633606; details: cited from earlier work
[13] = Staphylococcus aureus, ATCC6538
[14] = Pseudomonas aeruginosa, ATCC27853, 100% inhibition of growth

Molecule | a SI (selective index): ratio between CC50 in murine macrophages and IC50 in L. infantum [1] | IC50 [1] [µM] | b SI (selective index): ratio between CC50 in murine macrophages and IC50 in L. amazonensis (WT) [2] | IC50 [2] [µM] | MIC [3] [µM] | MIC ([4]; 100% inhibition of growth) [µM] | CC50 [5] [µM] | further results
CC(=O)Oc1ccccc1C(=O)[O][Sb]([O]C(=O)c1ccccc1OC(C)=O)([c]1ccccc1)([c]1ccccc1)[c]1ccccc1 [Complex 1, Bis-(acetylsalicylato)triphenylantimony(V)] | 4.51 | 13.3 ± 0.74 | 2.0 | 30.7 ± 3.43 | 140.6 | 140.6 | 60.5 ± 3.4 | 
CC(=O)Oc1ccccc1C(=O)[O][Bi]([O]C(=O)c1ccccc1OC(C)=O)([c]1ccccc1)([c]1ccccc1)[c]1ccccc1 [Complex 3, Bis-(acetylsalicylato)triphenylbismuth(V)] | 0.74 | 8.6 ± 1.36 | 0.75 | 8.5 ± 0.56 | 4.1 | 8.2 | 6.4 ± 0.5 | 
CC(=O)Oc1cccc(C(=O)[O][Bi]([O]C(=O)c2cccc(OC(C)=O)c2)([c]2ccccc2)([c]2ccccc2)[c]2ccccc2)c1 [Complex 4, Bis-(3-acetoxybenzoato)triphenylbismuth(V)] | <1 | 4 ± 0.39 | <1 | 2.9 ± 0.17 | 4.1 | 16.5 | 2 ± 0.1 | 
[Cl][Sb]([Cl])([c]1ccccc1)([c]1ccccc1)[c]1ccccc1 [Complex M1, triphenylantimony(V) dichloride] | 1.7 | 13.2 ± 2.03 | 2.4 | 9.3 ± 0.26 | 235.8 | 235.8 | 22.7 ± 0.93 | 
O=C([O-])[O-].c1cc[c]([Bi+2]([c]2ccccc2)[c]2ccccc2)cc1 [Complex M2, triphenylbismuth carbonate] | 10.6 | 1.1 ± 0.37 | 4.6 | 2.7 ± 0.34 | 24.5 | 48.9 | 12.1 ± 0.45 | 
CC(=O)Oc1ccccc1C(=O)O [HL1, acetylsalicylic acid] |  |  |  |  |  |  |  | selectivity ratio at 72 h [6]: < 1; selectivity ratio at 72 h [7]: < 1; MIC [3, 13]: > 555 µM; d SI (selective index): ratio between MIC in murine macrophages and MIC in Staphylococcus aereus [3]: <1; MIC [4, 14]: > 555 µM; CC50 at 24 h [8]: 580.1 ± 1.07 µM; IC50 [9]: 8990 µM; c SI (selective index): ratio between CC50 in murine macrophages and MIC in Pseudomonas aureginosa [10]: <1
CC(=O)Oc1cccc(C(=O)O)c1 [HL2, 3-acetoxybenzoic acid] |  |  |  |  |  |  |  | selectivity ratio at 72 h [6]: < 1; selectivity ratio at 72 h [7]: < 1; MIC [3, 13]: > 555 µM; d SI (selective index): ratio between MIC in murine macrophages and MIC in Staphylococcus aereus [3]: <1; MIC [4, 14]: > 555 µM; CC50 at 24 h [8]: 2768 ± 9 µM; c SI (selective index): ratio between CC50 in murine macrophages and MIC in Pseudomonas aureginosa [10]: <1
O=C([O-])[C@H]([O-])[C@@H]([O-])C(=O)[O-].O=C([O-])[C@H]([O-])[C@@H]([O-])C(=O)[O-].[K+].[K+].[Sb+3].[Sb+3] [TA, potassium antimony tartrate] |  | 100 ± 3 |  |  |  |  |  | IC50 [11]: 83 ± 1 µM
CN(C)[C@@H]1C(O)=C(C(N)=O)C(=O)[C@@]2(O)C(O)=C3C(=O)c4c(O)cccc4[C@@](C)(O)[C@H]3C[C@@H]12 [Tetracycline, tetracycline] |  |  |  |  |  |  |  | MIC [3, 13]: 3.5 µM (≈ 1.56 µg/mL); MIC, P. aeruginosa [12]: >96.7 [48] μM
Bis-(3-acetoxybenzoato)triphenylantimony(V) [Complex 2] | 2.45 | 12.2 ± 0.91 | 3.40 | 8.9 ± 0.36 | 140.6 | 140.6 | 30 ± 2.3 | 
meglumine antimoniate |  |  |  |  |  |  |  | activity in the promastigotes model (Leishmania promastigotes): inactive
